Earlier results, collected in patent US4324553A, “Hair dyeing compositions containing at least one 2,4-diamino-alkylbenzene as coupler” (L'Oreal, priority 1979, dated 1982).

Tested on: Salmonella typhimurium (TA 1538 and TA 98)
Details: Salmonella typhimurium TA 1538 and TA 98, with S9 mix induced by Aroclor 1254; prior-art statement

SMILES | mutagenic activity as evaluated in the Ames test
Cc1ccc(N)cc1N [2,4-diaminotoluene] | very high mutagenic activity
CCc1ccc(N)cc1N [2,4-Diamino-ethylbenzene] | high mutagenic activity
